From PubChem BioAssay (NCI)
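Grown in 96-well plates, cells were treated for 48 hours with each compound at five concentrations. Insufficient inhibition: endpoint recorded as highest concentration tested. The concentration for 50% growth inhibition is given as GI50. TGI: total growth inhibition.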

Key:
Experiment in all cases: DTP human tumour cell line panel, 48 h
U251 CNS = tested on: U251 CNS
HOP-92 NSCLC = tested on: HOP-92 NSCLC
786-0 renal = tested on: 786-0 renal
MALME-3M melanoma = tested on: MALME-3M melanoma
LOX IMVI melanoma = tested on: LOX IMVI melanoma
CCRF-CEM leukemia = tested on: CCRF-CEM leukemia
DU-145 prostate = tested on: DU-145 prostate
TK-10 renal = tested on: TK-10 renal
BT-549 breast = tested on: BT-549 breast
HT29 colon = tested on: HT29 colon
A498 renal = tested on: A498 renal
EKVX NSCLC = tested on: EKVX NSCLC
SF-268 CNS = tested on: SF-268 CNS
T-47D breast = tested on: T-47D breast
MCF7 breast = tested on: MCF7 breast
KM12 colon = tested on: KM12 colon
NCI-H226 lung = tested on: NCI-H226 lung
OVCAR-4 ovarian = tested on: OVCAR-4 ovarian
COLO 205 colon = tested on: COLO 205 colon
MOLT-4 leukemia = tested on: MOLT-4 leukemia
UACC-62 melanoma = tested on: UACC-62 melanoma
SW-620 colon = tested on: SW-620 colon
SNB-75 CNS = tested on: SNB-75 CNS
HL-60(TB) leukemia = tested on: HL-60(TB) leukemia
HOP-62 NSCLC = tested on: HOP-62 NSCLC
UO-31 renal = tested on: UO-31 renal
M14 melanoma = tested on: M14 melanoma
NCI-H23 lung = tested on: NCI-H23 lung
K-562 leukemia = tested on: K-562 leukemia
MDA-MB-231 breast = tested on: MDA-MB-231 breast
SR leukemia = tested on: SR leukemia
IGROV1 ovarian = tested on: IGROV1 ovarian
UACC-257 melanoma = tested on: UACC-257 melanoma
HCC-2998 colon = tested on: HCC-2998 colon
SN12C renal = tested on: SN12C renal
A549 NSCLC = tested on: A549 NSCLC
SK-MEL-5 melanoma = tested on: SK-MEL-5 melanoma
SF-539 CNS = tested on: SF-539 CNS
CAKI-1 renal = tested on: CAKI-1 renal
OVCAR-8 ovarian = tested on: OVCAR-8 ovarian
NCI-H460 lung = tested on: NCI-H460 lung
HCT-15 colon = tested on: HCT-15 colon
NCI/ADR-RES ovarian = tested on: NCI/ADR-RES ovarian
RPMI-8226 leukemia = tested on: RPMI-8226 leukemia
SK-OV-3 ovarian = tested on: SK-OV-3 ovarian
HS 578T breast = tested on: HS 578T breast
MDA-MB-435 = tested on: MDA-MB-435
SF-295 CNS = tested on: SF-295 CNS
ACHN renal = tested on: ACHN renal
OVCAR-3 ovarian = tested on: OVCAR-3 ovarian
SK-MEL-28 melanoma = tested on: SK-MEL-28 melanoma
OVCAR-5 ovarian = tested on: OVCAR-5 ovarian

S=C1NNC2(C(=S)N1)c1ccccc1-c1ccccc12
TGI (U251 CNS): > 10 µM
TGI (HOP-92 NSCLC): > 10 µM
TGI (786-0 renal): > 10 µM
TGI (MALME-3M melanoma): > 10 µM
TGI (LOX IMVI melanoma): > 10 µM
TGI (CCRF-CEM leukemia): > 10 µM
TGI (DU-145 prostate): > 10 µM
TGI (TK-10 renal): > 10 µM
TGI (BT-549 breast): > 10 µM
TGI (HT29 colon): > 10 µM
TGI (A498 renal): > 10 µM
TGI (EKVX NSCLC): > 10 µM
TGI (SF-268 CNS): > 10 µM
TGI (T-47D breast): > 10 µM
TGI (MCF7 breast): > 10 µM
TGI (KM12 colon): > 10 µM
TGI (NCI-H226 lung): > 10 µM
TGI (OVCAR-4 ovarian): > 10 µM
TGI (COLO 205 colon): > 10 µM
TGI (MOLT-4 leukemia): > 10 µM
TGI (UACC-62 melanoma): > 10 µM
TGI (SW-620 colon): > 10 µM
TGI (SNB-75 CNS): > 10 µM
TGI (HL-60(TB) leukemia): > 10 µM
TGI (HOP-62 NSCLC): > 10 µM
TGI (UO-31 renal): > 10 µM
TGI (M14 melanoma): > 10 µM
TGI (NCI-H23 lung): > 10 µM
TGI (K-562 leukemia): > 10 µM
TGI (MDA-MB-231 breast): > 10 µM
TGI (SR leukemia): > 10 µM
TGI (IGROV1 ovarian): > 10 µM
TGI (UACC-257 melanoma): > 10 µM
TGI (HCC-2998 colon): > 10 µM
TGI (SN12C renal): > 10 µM
TGI (A549 NSCLC): > 10 µM
TGI (SK-MEL-5 melanoma): > 10 µM
TGI (SF-539 CNS): > 10 µM
TGI (CAKI-1 renal): > 10 µM
TGI (OVCAR-8 ovarian): > 10 µM
TGI (NCI-H460 lung): > 10 µM
TGI (HCT-15 colon): > 10 µM
TGI (NCI/ADR-RES ovarian): > 10 µM
TGI (RPMI-8226 leukemia): > 10 µM
TGI (SK-OV-3 ovarian): > 10 µM
TGI (HS 578T breast): > 10 µM

CCCCCCCCCCCCCCCCCC[S+](C)CC (stereo not drawn)
GI50 (HOP-92 NSCLC): 1.38 µM
TGI (HOP-92 NSCLC): 4.5 µM
GI50 (786-0 renal): 1.25 µM
TGI (786-0 renal): 2.66 µM
GI50 (MALME-3M melanoma): 1.38 µM
TGI (MALME-3M melanoma): 3.45 µM
GI50 (DU-145 prostate): 1.41 µM
TGI (DU-145 prostate): 2.75 µM
GI50 (MDA-MB-435): 1.63 µM
TGI (MDA-MB-435): 3.47 µM
GI50 (A498 renal): 1.71 µM
TGI (A498 renal): 4.36 µM
GI50 (EKVX NSCLC): 1.95 µM
TGI (EKVX NSCLC): 4.31 µM
GI50 (SF-268 CNS): 1.18 µM
TGI (SF-268 CNS): 2.88 µM
GI50 (T-47D breast): 2.36 µM
TGI (T-47D breast): 18.8 µM
GI50 (MCF7 breast): 1.86 µM
TGI (MCF7 breast): 4.99 µM
GI50 (KM12 colon): 1.14 µM
TGI (KM12 colon): 2.45 µM
GI50 (NCI-H226 lung): 2.08 µM
TGI (NCI-H226 lung): 7.58 µM
GI50 (OVCAR-4 ovarian): 1.65 µM
TGI (OVCAR-4 ovarian): 4.35 µM
GI50 (COLO 205 colon): 1.42 µM
TGI (COLO 205 colon): 2.81 µM
GI50 (SF-295 CNS): 1.2 µM
TGI (SF-295 CNS): 2.59 µM
GI50 (SW-620 colon): 1.46 µM
TGI (SW-620 colon): 2.89 µM
GI50 (ACHN renal): 1.33 µM
TGI (ACHN renal): 2.96 µM
GI50 (HL-60(TB) leukemia): 1.17 µM
TGI (HL-60(TB) leukemia): 3.8 µM
GI50 (OVCAR-3 ovarian): 1.08 µM
TGI (OVCAR-3 ovarian): 2.33 µM
GI50 (UO-31 renal): 1.2 µM
TGI (UO-31 renal): 2.62 µM
GI50 (M14 melanoma): 1.33 µM
TGI (M14 melanoma): 2.75 µM
GI50 (NCI-H23 lung): 1.38 µM
TGI (NCI-H23 lung): 3.2 µM
GI50 (MDA-MB-231 breast): 1.67 µM
TGI (MDA-MB-231 breast): 3.83 µM
GI50 (HCC-2998 colon): 1.23 µM
TGI (HCC-2998 colon): 2.68 µM
GI50 (SN12C renal): 1.86 µM
TGI (SN12C renal): 4.44 µM
GI50 (CAKI-1 renal): 0.409 µM
TGI (CAKI-1 renal): 1.6 µM
GI50 (SK-MEL-28 melanoma): 1.67 µM
TGI (SK-MEL-28 melanoma): 3.71 µM
GI50 (HCT-15 colon): 2.84 µM
TGI (HCT-15 colon): 16.9 µM
GI50 (OVCAR-5 ovarian): 1.58 µM
TGI (OVCAR-5 ovarian): 4.25 µM
GI50 (NCI/ADR-RES ovarian): 11.4 µM
TGI (NCI/ADR-RES ovarian): 37.2 µM
GI50 (SK-OV-3 ovarian): 1.86 µM
TGI (SK-OV-3 ovarian): 5.45 µM
